According to patent publication US10940201B2, “Nucleic acid derivative having immunostimulatory activity” (Shionogi & Co., Ltd., priority 2015, dated 2021):
Read-outs that look alike come from different tables or passages of the source.

Legend:
recombinant PCRV protein = assay: Inducibility of antibody production in immunization by PCRV antigen vaccine (antibody titer); type: in vivo; conditions: A/J mice, recombinant PCRV protein with adjuvant, intradermal; antiserum Day 33; FIG. 15
Protocol: Perv nucleotide sequence (SEQ ID NO: 48) derived from Pseudomonas aeruginosa Strain PAO1 was cloned at NdeI-XhoI site in pET21a vector, and Escherichia coli strain BL21 (DE3) was transformed with the prepared plasmid. Strain perV-BL21 (DE3) was cultured in 500 mL of LB/Ampicillin liquid medium at 37° C., and 200 μL of 0.1 M IPTG was added when OD600 became 0.5 to induce expression of recombinant PCRV protein. After culturing at 16° C. for 18 hours, bacteria was separated by a centrifuge, and 15 ml of Buffer A (50 mM Tris-HCl (pH8.0), 0.2M NaCl) comprising 0.5% lysozyme (SIGMA Corporation) was added. After putting at 4° C. for 30 minutes, ultrasonic treatment was carried out. After centrifugation at 12,000 rpm for 10 minutes, soluble fraction was obtained. 1 mL of Ni-NTA agarose gel (QIAGEN) was added to Polyprep column (BIO-RAD Laboratories, Inc) and equilibrated with 10 mL of Buffer A. Soluble fraction was added to the column and passed. […] The resulting recombinant PCRV protein was measured the concentration with BCA assay kit (PIERCE) and kept at −80° C. […]
Antibody titer was measured as blow. […] 20 μL/well of 0.5 N sulfuric acid (Nacalai) was added, and absorbance at 450 nm was measured with a plate reader. The dilution ratio when absorbance at 450 nm is 1.0 was calculated and put as an antibody titer.

antigen-specific CTL = assay: Antigen-specific CTL inducibility in the absence of a tumor antigen peptide; type: in vivo, mouse
Protocol: On 7 days after second vaccination, the blood was collected, red blood cells was removed by BD Pharm Lyse (BD pharmingen), and the white blood cells were suspended in FACS buffer (1% fetal bovine serum, 2 mM PBS with EDTA). Anti-mouse CD16/32 monoclonal antibody (BioXcell) was added thereto, and Fc receptor blocking was carried out at 4° C. for 30 minutes. […] Then, staining was carried out with DAPI (Invitrogen) and the cells were washed twice with FACS buffer. It was resuspended in FACS buffer and analyzed by FACS verse Flow Cytometer (BD bioscience) and FAC Suite software (BD bioscience). For analysis, after DAPI negative fraction was gated, white blood cells fraction were provided using forward and side-way scattering as indicators. In the white blood cells fraction, both positive cells of Alexa 647-CD8 and PE-H-2Kb Tetramer were defined as CTLs. CTL ratio in white blood cells was used for evaluation.

B16F10 cells = assay: Anti-tumor effect in the absence of a tumor antigen peptide; type: in vivo, mouse; conditions: Table 69, compared to ODN2006 (SEQ-49)
Protocol: After immunization by TRP2 peptide vaccine, B16F10 cells (ATTC) which is mouse melanoma expressing TRP2 protein was subcutaneously transplanted to evaluate anti-tumor effect. In a similar method to Example 3 A), on the next day that tetramer-positive ratio in peripheral blood of mouse vaccinated twice every 7 days was observed, B16F10 cells (1×10^5 cells/mouse) were subcutaneously transplanted in the right shoulder. The major and minor axes of the engrafted tumor were measured every 2 to 3 days, and the tumor volume was calculated by the formula: (major axis×minor axis^2)/2 Calculation method for indicators of anti-tumor effect For the adjuvant comprising ODN1826 100·(average tumor volume of adjuvant group)/(average tumor volume of ODN1826 group) For the adjuvant comprising ODN2006 100·(average tumor volume of adjuvant group)/(average tumor volume of ODN2006 group)
Antigen-specific CTL inducibility and anti-tumor effect of ODN2006 (SEQ-49) and SEQ-121 in the absence of a tumor antigen peptide were evaluated. In similar methods of A) and B) of Example 3, the effect of vaccine without a tumor antigen peptide was verified. Both of the antigen-specific CTL values of SEQ-49 and SEQ-121 were undetectable.

human TLR9 = molecular target: T1, human TLR9 (Homo sapiens, UniProt Q9NR96); assay: Reporter assay with HEK-Blue hTLR9 cells (TLR9 agonist activity); type: cell-based; conditions: HEK-Blue hTLR9 cells, 16 hours
T1 construct: host or cells: HEK-Blue hTLR9 cells (HEK293)
T1 sequence (Q9NR96 26-1032): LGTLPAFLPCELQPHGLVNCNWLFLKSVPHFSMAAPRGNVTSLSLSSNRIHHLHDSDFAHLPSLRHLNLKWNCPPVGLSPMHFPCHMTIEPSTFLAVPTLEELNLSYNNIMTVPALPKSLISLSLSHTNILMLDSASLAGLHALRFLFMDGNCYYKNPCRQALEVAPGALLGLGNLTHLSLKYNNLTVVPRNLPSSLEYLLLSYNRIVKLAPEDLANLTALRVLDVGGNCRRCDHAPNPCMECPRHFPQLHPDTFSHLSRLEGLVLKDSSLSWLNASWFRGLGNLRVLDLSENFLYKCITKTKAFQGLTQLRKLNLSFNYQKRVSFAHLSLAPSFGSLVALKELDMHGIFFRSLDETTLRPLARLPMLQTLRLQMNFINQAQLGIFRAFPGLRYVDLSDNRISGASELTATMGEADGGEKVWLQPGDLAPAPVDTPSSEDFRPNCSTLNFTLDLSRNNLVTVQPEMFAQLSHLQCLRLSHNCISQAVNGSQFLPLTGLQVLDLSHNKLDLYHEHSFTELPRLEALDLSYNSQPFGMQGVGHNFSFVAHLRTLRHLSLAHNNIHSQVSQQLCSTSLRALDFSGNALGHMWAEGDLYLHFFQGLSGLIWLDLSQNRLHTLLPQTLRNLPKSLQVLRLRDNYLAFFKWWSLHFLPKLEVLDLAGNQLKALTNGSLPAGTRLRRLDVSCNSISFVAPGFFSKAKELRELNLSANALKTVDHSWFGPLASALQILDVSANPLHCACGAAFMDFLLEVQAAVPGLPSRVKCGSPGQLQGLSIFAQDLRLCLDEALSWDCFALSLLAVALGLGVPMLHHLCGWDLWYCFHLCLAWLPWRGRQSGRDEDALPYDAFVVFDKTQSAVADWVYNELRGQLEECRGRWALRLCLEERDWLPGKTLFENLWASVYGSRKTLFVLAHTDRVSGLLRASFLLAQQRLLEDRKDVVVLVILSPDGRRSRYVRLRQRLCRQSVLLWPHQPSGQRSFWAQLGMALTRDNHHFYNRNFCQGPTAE
Protocol: HEK-Blue™ hTLR9 cells (Invivogen) used for the reporter assay were made by introducing human TLR9 gene and a reporter gene that secretory alkaline phosphatase gene bound to NF-kB-AP-1 binding region sequence in HEK293 cells, and are the cells stably expressing the both genes. 3.6×10^4 of the cells suspended in HEK-Blue™ Detection ([…]) comprising substrates against the alkaline phosphatase were seeded on the 96 well plate, and 3 nM to 30 μM of a lipid binding double-stranded oligonucleotide of the present invention, the known CpG oligonucleotides (ODN2006, SEQ-49), or adjuvant based on design in Patent Document 1, i.e., ssCpG ODN introducing a lipid ligand (SEQ-142, 143 or 144) was added. After culturing in a 37° C., 5% CO2 incubator for 16 hours, absorbency at 620 nm was measured using the culture supernatant developed a color. The result value was analyzed with TIBCO Spotfire software, and calculated the 50% effective concentration (EC50) of each oligonucleotide.

## ODN2006 [SEQ-49]
Recombinant PCRV protein
  antibody titer (dilution ratio when absorbance at 450 nm is 1.0): 5.3×10^5
antigen-specific CTL; Table 69, in the absence of a tumor antigen peptide
  Ratio of average value of antigen-specific CTL: Undetectable
antigen-specific CTL; absence of a tumor antigen peptide
  antigen-specific CTL values: undetectable
B16F10 cells
  Tumor inhibition rate (Day 12 after transplantation): 0.00%
Human TLR9; Experiment 1 (Table 28), read-out: EC50
  EC50: 467 nM
Human TLR9; Experiment 1, Table 28, read-out: EC50 value
  EC50: ~467 nM
Human TLR9; Experiment 2 (Table 29), read-out: EC50
  EC50: 245 nM
Human TLR9; Experiment 2, Table 29, read-out: EC50 value
  EC50: ~245 nM
